Assay results from PubChem BioAssay (NCI).
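Dose response: 5 concentrations. Exposure: 48 h. Format: 96-well plates. Endpoint: linear interpolation; highest concentration if not reached. Abbreviation: GI50, concentration required for 50% inhibition of growth. At the TGI there is no net growth.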

How the values were obtained:
Experiment in all cases: NCI-60 cell line screen, 48 h
[1] = test system: UACC-257 melanoma
[2] = test system: SNB-19 CNS
[3] = test system: SW-620 colon
[4] = test system: KM12 colon
[5] = test system: HCC-2998 colon
[6] = test system: SF-539 CNS
[7] = test system: CCRF-CEM leukemia
[8] = test system: HCT-15 colon
[9] = test system: LOX IMVI melanoma
[10] = test system: RXF 393 renal
[11] = test system: NCI/ADR-RES ovarian
[12] = test system: NCI-H23 lung
[13] = test system: UACC-62 melanoma
[14] = test system: SK-MEL-2 melanoma
[15] = test system: SK-MEL-28 melanoma
[16] = test system: HOP-92 NSCLC
[17] = test system: SNB-75 CNS
[18] = test system: NCI-H522 lung
[19] = test system: SN12C renal
[20] = test system: A498 renal
[21] = test system: EKVX NSCLC
[22] = test system: IGROV1 ovarian
[23] = test system: DU-145 prostate
[24] = test system: SK-OV-3 ovarian
[25] = test system: TK-10 renal
[26] = test system: CAKI-1 renal
[27] = test system: MDA-MB-435
[28] = test system: SF-295 CNS
[29] = test system: OVCAR-8 ovarian
[30] = test system: U251 CNS
[31] = test system: SR leukemia
[32] = test system: MALME-3M melanoma
[33] = test system: OVCAR-3 ovarian
[34] = test system: UO-31 renal
[35] = test system: M14 melanoma
[36] = test system: T-47D breast
[37] = test system: HL-60(TB) leukemia
[38] = test system: ACHN renal
[39] = test system: RPMI-8226 leukemia
[40] = test system: MDA-MB-231 breast
[41] = test system: SF-268 CNS
[42] = test system: OVCAR-5 ovarian
[43] = test system: COLO 205 colon
[44] = test system: OVCAR-4 ovarian
[45] = test system: NCI-H226 lung
[46] = test system: MOLT-4 leukemia
[47] = test system: PC-3 prostate
[48] = test system: A549 NSCLC
[49] = test system: HS 578T breast
[50] = test system: SK-MEL-5 melanoma
[51] = test system: HCT-116 colon
[52] = test system: HT29 colon
[53] = test system: K-562 leukemia
[54] = test system: MCF7 breast
[55] = test system: 786-0 renal
[56] = test system: HOP-62 NSCLC
[57] = test system: NCI-H460 lung
[58] = test system: BT-549 breast

CCCCN(CCCC)CCC(O)c1cc2ccc(C(F)(F)F)cc2c2cc(C(F)(F)F)ccc12 (stereo not drawn)
GI50 [1]: 2150 nM
TGI [1]: 5960 nM
GI50 [2]: 3920 nM
TGI [2]: 15300 nM
GI50 [3]: 1760 nM
TGI [3]: 5130 nM
GI50 [4]: 2930 nM
TGI [4]: 9240 nM
GI50 [5]: 2080 nM
TGI [5]: 4580 nM
GI50 [6]: 2040 nM
TGI [6]: 5440 nM
GI50 [7]: 2960 nM
TGI [7]: 8960 nM
GI50 [8]: 2150 nM
TGI [8]: 7290 nM
GI50 [9]: 1660 nM
TGI [9]: 3630 nM
GI50 [10]: 1560 nM
TGI [10]: 3160 nM
GI50 [11]: 2690 nM
TGI [11]: 11900 nM
GI50 [12]: 2080 nM
TGI [12]: 6810 nM
GI50 [13]: 2490 nM
TGI [13]: 6530 nM
GI50 [14]: 2530 nM
TGI [14]: 4510 nM
GI50 [15]: 2210 nM
TGI [15]: 4230 nM
GI50 [16]: 1490 nM
TGI [16]: 4260 nM
GI50 [17]: 3460 nM
TGI [17]: 15000 nM
GI50 [18]: 1790 nM
TGI [18]: 3540 nM
GI50 [19]: 3840 nM
TGI [19]: 14600 nM
GI50 [20]: 2020 nM
TGI [20]: 5860 nM
GI50 [21]: 9300 nM
TGI [21]: 26800 nM
GI50 [22]: 3470 nM
TGI [22]: 14500 nM
GI50 [23]: 6150 nM
TGI [23]: 18700 nM
GI50 [24]: 3980 nM
TGI [24]: 15300 nM
GI50 [25]: 2280 nM
TGI [25]: 4620 nM
GI50 [26]: 2610 nM
TGI [26]: 9010 nM
GI50 [27]: 2130 nM
TGI [27]: 4590 nM
GI50 [28]: 5180 nM
TGI [28]: 18000 nM
GI50 [29]: 1920 nM
TGI [29]: 4250 nM
GI50 [30]: 1790 nM
TGI [30]: 3750 nM
GI50 [31]: 1610 nM
TGI [31]: 6410 nM
GI50 [32]: 2340 nM
TGI [32]: 5510 nM
GI50 [33]: 2890 nM
TGI [33]: 7550 nM
GI50 [34]: 1890 nM
TGI [34]: 12400 nM
GI50 [35]: 1820 nM
TGI [35]: 3770 nM
GI50 [36]: 3090 nM
TGI [36]: 12900 nM
GI50 [37]: 1440 nM
TGI [37]: 3420 nM
GI50 [38]: 2940 nM
TGI [38]: 12600 nM
GI50 [39]: 2280 nM
TGI [39]: 6170 nM
GI50 [40]: 1330 nM
TGI [40]: 3160 nM
GI50 [41]: 4980 nM
TGI [41]: 18300 nM
GI50 [42]: 2970 nM
TGI [42]: 12800 nM
GI50 [43]: 1620 nM
TGI [43]: 3330 nM
GI50 [44]: 3500 nM
TGI [44]: 13100 nM
GI50 [45]: 2880 nM
TGI [45]: 10500 nM
GI50 [46]: 2670 nM
TGI [46]: 6660 nM
GI50 [47]: 2520 nM
TGI [47]: 9670 nM
GI50 [48]: 3120 nM
TGI [48]: 12100 nM
GI50 [49]: 1550 nM
TGI [49]: 4620 nM
GI50 [50]: 1760 nM
TGI [50]: 3150 nM
GI50 [51]: 1590 nM
TGI [51]: 3040 nM
GI50 [52]: 2000 nM
TGI [52]: 4410 nM
GI50 [53]: 2060 nM
TGI [53]: 5590 nM
GI50 [54]: 1620 nM
TGI [54]: 3740 nM
GI50 [55]: 1550 nM
TGI [55]: 3200 nM
GI50 [56]: 2200 nM
TGI [56]: 5680 nM
GI50 [57]: 1840 nM
TGI [57]: 4090 nM

C=C1C(=O)O[C@H]2[C@H]1CC/C(CNC(=O)/C=C/c1ccc(Cl)cc1Cl)=C\CC[C@@]1(C)O[C@@H]21
GI50 [1]: 1210 nM
TGI [1]: 2580 nM
GI50 [2]: 3240 nM
TGI [2]: 14200 nM
GI50 [3]: 1280 nM
TGI [3]: 2680 nM
GI50 [4]: 1620 nM
TGI [4]: 3030 nM
GI50 [5]: 1560 nM
TGI [5]: 2980 nM
GI50 [6]: 1530 nM
TGI [6]: 3170 nM
GI50 [7]: 304 nM
TGI [7]: 1190 nM
GI50 [8]: 1010 nM
TGI [8]: 2330 nM
GI50 [9]: 516 nM
TGI [9]: 1810 nM
GI50 [10]: 403 nM
TGI [10]: 1630 nM
GI50 [11]: 2570 nM
TGI [11]: 12800 nM
GI50 [12]: 1400 nM
TGI [12]: 3200 nM
GI50 [13]: 1330 nM
TGI [13]: 2900 nM
GI50 [14]: 1550 nM
TGI [14]: 3630 nM
GI50 [15]: 1320 nM
TGI [15]: 2930 nM
GI50 [16]: 483 nM
TGI [16]: 2520 nM
GI50 [17]: 1740 nM
TGI [17]: 10300 nM
GI50 [18]: 1090 nM
TGI [18]: 2510 nM
GI50 [19]: 1730 nM
TGI [19]: 4080 nM
GI50 [20]: 1470 nM
TGI [20]: 3870 nM
GI50 [21]: 1550 nM
TGI [21]: 3100 nM
GI50 [22]: 1630 nM
TGI [22]: 3410 nM
GI50 [23]: 594 nM
TGI [23]: 1890 nM
GI50 [24]: 3330 nM
TGI [24]: 13000 nM
GI50 [25]: 1550 nM
TGI [25]: 2900 nM
GI50 [26]: 759 nM
TGI [26]: 2160 nM
GI50 [27]: 444 nM
TGI [27]: 1740 nM
GI50 [28]: 1620 nM
TGI [28]: 3830 nM
GI50 [29]: 1370 nM
TGI [29]: 3440 nM
GI50 [30]: 1650 nM
TGI [30]: 3140 nM
GI50 [31]: 232 nM
TGI [31]: 1890 nM
GI50 [32]: 1290 nM
TGI [32]: 2700 nM
GI50 [33]: 434 nM
TGI [33]: 1570 nM
GI50 [34]: 1030 nM
TGI [34]: 2280 nM
GI50 [35]: 1440 nM
TGI [35]: 3370 nM
GI50 [36]: 1180 nM
TGI [36]: 3450 nM
GI50 [37]: 25.6 nM
TGI [37]: 542 nM
GI50 [38]: 1130 nM
TGI [38]: 2480 nM
GI50 [39]: 329 nM
TGI [39]: 1540 nM
GI50 [40]: 1350 nM
TGI [40]: 3180 nM
GI50 [41]: 1090 nM
TGI [41]: 2670 nM
GI50 [42]: 1850 nM
TGI [42]: 4100 nM
GI50 [43]: 1140 nM
TGI [43]: 2950 nM
GI50 [44]: 1310 nM
TGI [44]: 3010 nM
GI50 [45]: 2330 nM
TGI [45]: 5720 nM
GI50 [46]: 275 nM
TGI [46]: 1580 nM
GI50 [47]: 1420 nM
TGI [47]: 4400 nM
GI50 [48]: 2120 nM
TGI [48]: 5460 nM
GI50 [49]: 2090 nM
TGI [49]: 8230 nM
GI50 [50]: 1630 nM
TGI [50]: 3020 nM
GI50 [51]: 647 nM
TGI [51]: 2000 nM
GI50 [52]: 841 nM
TGI [52]: 2490 nM
GI50 [58]: 975 nM
TGI [58]: 2590 nM
GI50 [53]: 696 nM
TGI [53]: 4160 nM
GI50 [55]: 1200 nM
TGI [55]: 2560 nM
GI50 [56]: 1740 nM
TGI [56]: 4060 nM
GI50 [57]: 1760 nM
TGI [57]: 3520 nM
